# In patent publication US11905268B2, “Anthranilic acid derivatives and their use in the treatment of human cancers” (UNIVERSITY OF CENTRAL FLORIDA RESEARCH FOUNDATION, INC., priority 2018, dated 2024):
# Read-outs that look alike come from different tables or passages of the source.
# Columns and labels:
# [1] = test system: DFMO treated Chinese hamster ovary (CHO) cells; test: DFMO/spermidine rescue assay in CHO cells (Assay 2); format: cell-based; conditions: for IC50 / EC50: Cricetulus griseus; for EC50: Table 2
# CHO cells [2] = test: Ant44 rescue assay in CHO cells (Assay 1); format: cell-based, Chinese hamster; conditions: for EC50 / IC50: Cricetulus griseus; for Active in Ant44 assay?: Table 2, in CHO
# CHO cells [3] = test: Cytotoxicity screen in CHO cells; conditions: for IC50 at 48 h: Chinese hamster, CHO K1 cells
# L3.6pl cells [4] = test: DFMO/Spd rescue assay in L3.6pl cells; format: cell-based, human
# Experimental: In another example in the DFMO spermidine (Spd) rescue assay an EC38=8 means that the PTI molecule at 8 μM was able to block 38% of the entry of spermidine into DFMO treated L3.6 pl cells after 72 h incubation time at 37° C. Another explanation, is that the PTI was able to disrupt […] of the intracellular trafficking of Spd that leads to cell rescue. […] Since both Ant44 and Spermidine are polyamine-based systems, cells likely use one mode of the polyamine transport (basal or obligate) in each assay.
# (§1) The higher EC value denotes the compound is giving a relative % growth of L3.6 pl cells consistent with inhibiting either Ant44 uptake or blocking the uptake of the rescuing dose of spermidine. Alternatively these compounds may disrupting the intracellular trafficking of Ant44 and spermidine so they cannot reach their intended intracellular target.
# L3.6pl cells [5] = test: Ant44 assay in L3.6pl cells; format: cell-based, human; conditions: for EC50: Homo sapiens, L3.6pl
# Experimental: For example, in the ANT44 assay an EC48=9 means that the PTI molecule at 9 μM was able to block 48% of the Ant44 entry into L3.6 pl human Pancreatic ductal adenocarcinoma cells after 72 h incubation time at 37° C. Another explanation, is that the PTI was able to disrupt […] of the intracellular trafficking of Ant44 that leads to toxicity. Recall a polyamine transport inhibitor can work at any one (or more than one) of the different steps involved in the multi-step polyamine import and intracellular trafficking process. Blocking the entering spermidine from reaching its intended intracellular target is another way in which these compounds may function.
# as §1
# L3.6pl cells [6] = test: cells; format: cell-based; conditions: for IC50: Homo sapiens, L3.6pl; for L3.6pl MTC: maximum tolerated concentration where cells are >90% viable
# Solubility = format: physicochemical; conditions: for solubility: PBS
# [7] = Microsomal stability, human; format: in vitro ADME
# [8] = Microsomal stability, mouse; format: in vitro ADME
# [9] = Microsomal stability, rat; format: in vitro ADME
# Plasma stability, human = format: in vitro ADME
# Plasma stability, mouse = format: in vitro ADME
# Plasma stability, rat = format: in vitro ADME
# [10] = CHO, Table 7, read-out: SAR IC50 DFMO assay
# [11] = CHO, Table 7, read-out: SAR IC50 Ant44 assay
# [12] = read-out: IC50 values (toxicity profile)
# [13] = relative growth after 72 h, read-out: L3.6pl IC50
# [14] = CHO, Table 2, Active in Ant44 assay?, read-out: Ant44 assay EC50 in CHO
# [15] = Table 4B, CHO cells, read-out: Ant44 IC50
# [16] = summary of Table 6 (human, mouse, rat)
smiles,measurement,setting,value
"O=C(Nc1ccc(N2CCN(c3ccccn3)CC2)cc1C(=O)O)c1ccco1 [SBI-0814419, 2-(furan-2-carboxamido)-5-(4-(pyridin-2-yl)piperazin-1-yl)benzoic acid]",IC50,[1]; [10],> 40 µM
same,Active in DFMO assay?,"[1]; Table 3, in CHO",No in CHO and in L3.6pl
same,EC50,"CHO cells [2]; CHO, Table 3, read-out: Ant44 rescue EC50 CHO",> 32 µM
same,IC50,CHO cells [2]; [11],> 40 µM
same,Ant44 IC50,"CHO cells [2]; Table 5B, CHO cells",trace
same,IC50 at 48 h,CHO cells [3],> 40 µM
same,MTD CHO,CHO cells [3]; hamster,>32 µM
same,worked in Assay 2 (DFMO),L3.6pl cells [4],performed in both assays
same,Active in DFMO assay?,"L3.6pl cells [4]; Table 3, in L3.6pl",No in CHO and in L3.6pl
same,worked in Assay 1 (Ant44),L3.6pl cells [5],performed in both assays
same,EC50,"L3.6pl cells [5]; Table 3, read-out: Ant44 rescue EC50 L3.6pl",10 µM
same,EC50,"L3.6pl cells [5]; Table 5B, Ant44 blockade, read-out: L3.6pl EC50",10 µM
same,IC50,L3.6pl cells [6]; [12],> 38 µM
same,IC50,L3.6pl cells [6]; [13],> 50 µM
same,MTD L3.6pl,L3.6pl cells [6]; Table 3,>20 µM
same,L3.6pl MTD,L3.6pl cells [6]; Table 5B,(>10) uM
same,L3.6pl MTC,L3.6pl cells [6],12 µM
COc1ccc(C(=O)Nc2ccc(N3CCN(c4ccccc4OC)CC3)cc2C(=O)O)cc1 [SBI-0800678],EC50,[1]; CHO,~25 µM
same,IC50,"[1]; Table 1 HTS top hits, CHO cells, read-out: DFMO Assay IC50",15 to 25 µM
same,EC50,CHO cells [2]; [14],~20 µM
same,IC50,CHO cells [2]; [11],9 µM
same,EC50,"CHO cells [2]; Table 1 HTS top hits, CHO cells, read-out: Ant44 EC50",20 µM
same,IC50,CHO cells [2]; [15],9 µM
same,Active in Ant44 assay?,CHO cells [2],Yes
same,IC50 at 48 h,CHO cells [3],> 40 µM
same,CHO MTD,CHO cells [3]; hamster,>32 µM
same,Tox (Ant44),"CHO cells [3]; toxic above the stated concentration, CHO cells, listed with Ant44 assay",SBI- 0800678.0001 (20 EC50) Tox >20 μM
same,tox (DFMO Assay),"CHO cells [3]; toxic above the stated concentration, CHO cells, listed with DFMO assay",> 15 µM
same,worked in Assay 1 (Ant44),L3.6pl cells [5],worked
same,IC50,L3.6pl cells [6]; [13],13.3 ± 0.04 µM
same,L3.6pl MTC,L3.6pl cells [6],6 µM
same,solubility in PBS,Solubility,poorly soluble
same,solubility,"Solubility; aqueous buffer, pH 5.0",0.3 µg/mL
same,solubility,"Solubility; pH 6.2, aqueous buffer",0.1 µg/mL
same,solubility,"Solubility; pH 7.4, aqueous buffer",> 0.1 µg/mL
same,Microsomal Stability % remaining at 1 hour,[7]; Human,52.0%
same,microsomal stability,[7]; [16],good
same,Microsomal Stability % remaining at 1 hour,[8],60.4%
same,Microsomal Stability % remaining at 1 hour,[9],58.0%
same,Plasma Stability % remaining at 3 hours,"Plasma stability, human; Human",88.0%
same,plasma stability,"Plasma stability, human; [16]",good
same,Plasma Stability % remaining at 3 hours,"Plasma stability, mouse",83.1%
same,Plasma Stability % remaining at 3 hours,"Plasma stability, rat",55.3%
"COc1ccccc1C(=O)Nc1ccc(N2CCC(Oc3ccccc3)CC2)cc1C(=O)O [SBI-0814420, 2-(2-methoxybenzamido)-5-(4-phenoxypiperidin-1-yl)benzoic acid]",IC50,[1]; [10],19 µM
same,IC50,CHO cells [2]; [11],32 µM
same,IC50 at 48 h,CHO cells [3],> 40 µM
same,worked in Assay 2 (DFMO),L3.6pl cells [4],performed in both assays
same,worked in Assay 1 (Ant44),L3.6pl cells [5],performed in both assays
same,IC50,L3.6pl cells [6]; [12],> 38 µM
same,IC50,L3.6pl cells [6]; [13],38.6 ± 0.06 µM
same,L3.6pl MTC,L3.6pl cells [6],10 µM
"COc1ccccc1C(=O)Nc1ccc(N2CCC(c3ccccc3)CC2)cc1C(=O)O [SBI-0814418, 2-(2-methoxybenzamido)-5-(4-phenylpiperidin-1-yl)benzoic acid]",activity in DFMO assay,[1]; CHO cells,modest activity
same,EC50,[1]; CHO,21 µM
same,IC50,"[1]; CHO, Table 4B, read-out: DFMO/CHO IC50",21 µM
same,IC50,[1]; [10],21 µM
same,activity in Ant44 assay,CHO cells [2]; CHO cells,modest activity
same,EC50,CHO cells [2]; [14],19 µM
same,IC50,CHO cells [2]; [11],18 µM
same,IC50,CHO cells [2]; [15],19 µM
same,Active in Ant44 assay?,CHO cells [2],Yes
same,general toxicity,CHO cells [3]; CHO cells,without general toxicity
same,IC50 at 48 h,CHO cells [3],> 40 µM
same,CHO MTD,CHO cells [3]; hamster,>32 µM
same,activity in DFMO assay run in L3.6 pl,L3.6pl cells [4],micromolar activity
same,EC50,"L3.6pl cells [4]; Homo sapiens, Table 2, DFMO rescue in L3.6pl",5 µM
same,Active in Ant44 assay?,"L3.6pl cells [5]; Table 2, in L3.6pl",no
same,L3.6pl MTD,L3.6pl cells [6]; Table 2,5 µM
same,L3.6pl MTD,L3.6pl cells [6]; Table 4B,(5-10) μM
same,L3.6pl MTD cell: percentage at 10 μM,L3.6pl cells [6]; at 10 μM,80%
